{"source": "patent US9273038B2", "about": "“Solid forms of an ion channel modulator” (Gilead Sciences, Inc., priority 2014, dated 2016)", "assay_type_in_all_cases": "physicochemical", "key": {"[1]": {"test": "Abbreviated stable form screen of Compound I Form V (slurry at room temperature)", "conditions": "for solubility at 3 days: slurry of the solid in solvent, organic solvent or mixture, thermodynamic from solid, solid converted to Form VI", "protocol": "Abbreviated stable form screen of Compound I Four V was performed by slurrying […] (about 100 mg) in IPA, IPAc and MTBE (1-2 mL) in an attempt to obtain anhydrous form as summarized in Table 16. The first aliquot (about 0.5 mL) was taken for XRPD analysis and solubility assessment after 3 days of equilibration at room temperature. Solids were analyzed before and after overnight drying at 45° C. […] After two weeks equilibration at room temperature no form change was observed. XRPD patterns of all samples were consistent with Compound I Form VI."}, "[2]": {"test": "Dynamic vapor sorption (DVS) analysis", "protocol": "The solids with unique XRPD patterns were characterized by DSC, TGA, ^1H NMR, KF and DVS. All XRPD patterns were obtained in the experimental setting as follows: 45 kV, 40 mA, Kα1=1.5406 Å, scan range 2 to 40°, step size 0.0167°, counting time: 15.24 s. DSC and TGA analyses were performed using 10° C./min heating rate over the 20 to 350° C. temperature range."}, "[3]": {"test": "Stable form screen of Compound I Form IV (slurry at room temperature)", "conditions": "for solubility at 24 h: slurry of the solid in solvent, thermodynamic from solid, read-out: Solubility after 24 h", "protocol": "Compound I Form IV (about 50 mg) was slurried in 0.5-1 mL of solvent and allowed to stir at room temperature for 2 weeks. […] Similar results were observed after 2 weeks of equilibration (Table 15)."}, "[4]": {"test": "Thermal stability of Compound I Form IV under vacuum at 45° C. (XRPD, HPLC)", "conditions": "for HPLC (% AN) / XRPD / HPLC (% ES): drying under vacuum at 45° C.", "protocol": "Drying study was also performed of Compound I Form IV under vacuum at 45° C. in an attempt to determine the chemical stability of this material by HPLC as well as form stability by XRPD."}, "[5]": {"test": "Hydrate screen in ethanol/water and isopropanol/water: solubility and relative form stability", "conditions": "for Form III Solubility mg/g (1 day): from 50:50 w/w mixture of Form I & III", "protocol": "A hydrate screen starting from Form I was also conducted to evaluate whether hydrates of Compound I exist. The hydrate screen was conducted in ethanol/water (Table 6) and isopropanol/water (Table 7) mixtures, and in both cases, a new polymorph of Compound I was discovered (denoted as Form III).\nFrom the initial hydrate screens presented in Table 6 and Table 7 no apparent trends were observed. In this case, all slurries of Form I in EtOH/water or IPA/water mixtures remained unchanged after 2 weeks (Table 8 and Table 9). Since Form III has been observed previously under the same conditions, it was suspected that the lack of form conversion is mainly due to slow kinetics. […] Attempts to determine the relative stability between Forms I and III at lower water activities were unsuccessful since Form I either was too soluble or oiled out at water activities of 0.8 or below."}, "[6]": {"conditions": "under vacuum at 45° C., 2 and 7 days"}}, "note": "Where two headings read alike, the source gives them in different places.", "data": [{"compound": "O=C1c2cc(-c3ccc(OC(F)(F)F)cc3)ccc2OCCN1Cc1ncccn1.O=S(=O)(O)c1ccccc1", "note": "[Compound I Form V, 4-(pyrimidin-2-ylmethyl)-7-(4-(trifluoromethoxy)phenyl)-3,4-dihydrobenzo[f][1,4]oxazepin-5(2H)-one benzene sulfonic acid]", "values": [{"measurement": "Form stability in slurry by XRPD (in words)", "setting": "[1]; IPA, IPAc and MTBE, 3 days, no further change after two weeks", "value": "all solids converted to anhydrous Compound I Form VI"}, {"measurement": "solubility at 3 days", "setting": "[1]; IPA", "value": 16100, "unit": "µg/mL"}, {"measurement": "solubility at 3 days", "setting": "[1]; IPAc", "value": 2200, "unit": "µg/mL"}, {"measurement": "solubility at 3 days", "setting": "[1]; MTBE", "value": 460, "unit": "µg/mL"}]}, {"compound": "CCS(=O)(=O)O.O=C1c2cc(-c3ccc(OC(F)(F)F)cc3)ccc2OCCN1Cc1ncccn1", "note": "[Compound I Form XVI, 4-(pyrimidin-2-ylmethyl)-7-(4-(trifluoromethoxy)phenyl)-3,4-dihydrobenzo[f][1,4]oxazepin-5(2H)-one esylate]", "values": [{"measurement": "Relative humidity of deliquescence (DVS)", "setting": "[2]", "value": "around 90 % RH"}]}, {"compound": "O=C(O)C(=O)O.O=C1c2cc(-c3ccc(OC(F)(F)F)cc3)ccc2OCCN1Cc1ncccn1", "note": "[Compound I Form XVIII, 4-(pyrimidin-2-ylmethyl)-7-(4-(trifluoromethoxy)phenyl)-3,4-dihydrobenzo[f][1,4]oxazepin-5(2H)-one oxalate]", "values": [{"measurement": "Hygroscopicity by DVS (in words)", "setting": "[2]", "value": "non-hygroscopic"}, {"measurement": "Moisture uptake at 90% RH (DVS)", "setting": "[2]", "value": "about 0.075%"}]}, {"compound": "CS(=O)(=O)O.O=C1c2cc(-c3ccc(OC(F)(F)F)cc3)ccc2OCCN1Cc1ncccn1", "note": "[Compound I Form IV, 4-(pyrimidin-2-ylmethyl)-7-(4-(trifluoromethoxy)phenyl)-3,4-dihydrobenzo[f][1,4]oxazepin-5(2H)-one methanesulfonic acid]", "values": [{"measurement": "Form stability in slurry by XRPD (in words)", "setting": "[3]; 17 solvents, 24 h, similar after 2 weeks, water afforded Form III (wet), Form III + Form II after air drying", "value": "no form change in all solvents except water"}, {"measurement": "solubility at 24 h", "setting": "[3]; aqueous with cosolvent or surfactant or cyclodextrin, EtOH/water 0.8 water activity (480 μL H2O and 520 μL EtOH), all solids dissolved", "value": "> 150000", "unit": "µg/mL"}, {"measurement": "solubility at 24 h", "setting": "[3]; organic solvent or mixture, 2-Me-THF", "value": 2300, "unit": "µg/mL"}, {"measurement": "solubility at 24 h", "setting": "[3]; organic solvent or mixture, Acetone", "value": 4160, "unit": "µg/mL"}, {"measurement": "solubility at 24 h", "setting": "[3]; organic solvent or mixture, DCM", "value": 5480, "unit": "µg/mL"}, {"measurement": "solubility at 24 h", "setting": "[3]; organic solvent or mixture, EtOAc", "value": 1260, "unit": "µg/mL"}, {"measurement": "solubility at 24 h", "setting": "[3]; organic solvent or mixture, EtOH", "value": 12200, "unit": "µg/mL"}, {"measurement": "solubility at 24 h", "setting": "[3]; organic solvent or mixture, Heptane", "value": 100, "unit": "µg/mL"}, {"measurement": "solubility at 24 h", "setting": "[3]; organic solvent or mixture, IPA", "value": 5420, "unit": "µg/mL"}, {"measurement": "solubility at 24 h", "setting": "[3]; organic solvent or mixture, IPAc", "value": 780, "unit": "µg/mL"}, {"measurement": "solubility at 24 h", "setting": "[3]; organic solvent or mixture, MEK", "value": 3140, "unit": "µg/mL"}, {"measurement": "solubility at 24 h", "setting": "[3]; organic solvent or mixture, MIBK", "value": 1420, "unit": "µg/mL"}, {"measurement": "solubility at 24 h", "setting": "[3]; organic solvent or mixture, MTBE", "value": 340, "unit": "µg/mL"}, {"measurement": "solubility at 24 h", "setting": "[3]; organic solvent or mixture, MeCN", "value": 4820, "unit": "µg/mL"}, {"measurement": "solubility at 24 h", "setting": "[3]; organic solvent or mixture, MeOH", "value": 40400, "unit": "µg/mL"}, {"measurement": "solubility at 24 h", "setting": "[3]; organic solvent or mixture, THF", "value": 7940, "unit": "µg/mL"}, {"measurement": "solubility at 24 h", "setting": "[3]; organic solvent or mixture, Toluene", "value": 360, "unit": "µg/mL"}, {"measurement": "solubility at 24 h", "setting": "[3]; water, Water, solid converted to Form III (wet)", "value": 4340, "unit": "µg/mL"}, {"measurement": "Hygroscopicity by DVS (in words)", "setting": "[2]", "value": "slightly hygroscopic"}, {"measurement": "Moisture uptake at 90% RH (DVS)", "setting": "[2]", "value": 1.0, "unit": "wt %"}, {"measurement": "Moisture uptake at 90% RH (DVS)", "setting": "[2]; listed as Form IV", "value": 1.01, "unit": "wt % at"}, {"measurement": "Hygroscopicity by DVS (in words)", "setting": "[2]; listed as Form IV", "value": "Slightly"}, {"measurement": "HPLC (% AN)", "setting": "[4]; 0 days", "value": 100, "unit": "% AN"}, {"measurement": "XRPD", "setting": "[4]; 0 days", "value": "Form IV"}, {"measurement": "HPLC (% ES)", "setting": "[4]; 0 days, theoretical strength 81.21%", "value": 80.2, "unit": "% ES"}, {"measurement": "HPLC (% AN)", "setting": "[4]; 2 days", "value": 100, "unit": "% AN"}, {"measurement": "XRPD", "setting": "[4]; 2 days", "value": "Form IV"}, {"measurement": "HPLC (% ES)", "setting": "[4]; 2 days, theoretical strength 81.21%", "value": 85.4, "unit": "% ES"}, {"measurement": "HPLC (% AN)", "setting": "[4]; 7 days", "value": 100, "unit": "% AN"}, {"measurement": "XRPD", "setting": "[4]; 7 days", "value": "Form IV"}, {"measurement": "HPLC (% ES)", "setting": "[4]; 7 days, theoretical strength 81.21%", "value": 82.1, "unit": "% ES"}, {"measurement": "Form stability by XRPD during drying (in words)", "setting": "[4]; [6]", "value": "did not show any form change"}, {"measurement": "HPLC purity during drying", "setting": "[4]; [6]", "value": "100 % (AUC)"}, {"measurement": "HPLC strength during drying", "setting": "[4]; under vacuum at 45° C., 2 and 7 days, theoretical strength 81.21%", "value": "80 to 85", "unit": "%"}]}, {"compound": "4-(pyrimidin-2-ylmethyl)-7-(4-(trifluoromethoxy)phenyl)-3,4-dihydrobenzo[f][1,4]oxazepin-5(2H)-one edisylate [Compound I Form XVII]", "values": [{"measurement": "Hygroscopicity by DVS (in words)", "setting": "[2]", "value": "slightly hygroscopic"}, {"measurement": "Moisture uptake at 90% RH (DVS)", "setting": "[2]", "value": "about 1%"}]}, {"compound": "O=C1c2cc(-c3ccc(OC(F)(F)F)cc3)ccc2OCCN1Cc1ncccn1", "note": "[Compound I Form III, 4-(pyrimidin-2-ylmethyl)-7-(4-(trifluoromethoxy)phenyl)-3,4-dihydrobenzo[f][1,4]oxazepin-5(2H)-one]", "values": [{"measurement": "Form III Solubility mg/g (1 day)", "setting": "[5]; 10% EtOH/water, water activity >0.9", "value": 0.06, "unit": "mg/g"}, {"measurement": "Form III Solubility mg/g (1 day)", "setting": "[5]; 10% IPA/water, water activity >0.9", "value": 0.06, "unit": "mg/g"}, {"measurement": "Form III Solubility mg/g (1 day)", "setting": "[5]; 20% EtOH/water, water activity 0.8-0.9", "value": 0.10, "unit": "mg/g"}, {"measurement": "Form III Solubility mg/g (1 day)", "setting": "[5]; 20% IPA/water, water activity >0.9", "value": 0.19, "unit": "mg/g"}, {"measurement": "Form III Solubility mg/g (1 day)", "setting": "[5]; 25% IPA/water, water activity >0.9", "value": 0.78, "unit": "mg/g"}, {"measurement": "Form III Solubility mg/g (1 day)", "setting": "[5]; 30% EtOH/water, water activity 0.8-0.9", "value": 0.49, "unit": "mg/g"}, {"measurement": "Form III Solubility mg/g (1 day)", "setting": "[5]; 30% IPA/water, water activity >0.9", "value": 3.2, "unit": "mg/g"}, {"measurement": "Form III Solubility mg/g (1 day)", "setting": "[5]; 35% EtOH/water, water activity 0.8-0.9", "value": 1.8, "unit": "mg/g"}, {"measurement": "Relative polymorph stability (competition slurry Form I/Form III)", "setting": "[5]; water activities above 0.8, EtOH/water or IPA/water", "value": "the most stable polymorph of Compound I"}]}, {"compound": "O=C1c2cc(-c3ccc(OC(F)(F)F)cc3)ccc2OCCN1Cc1ncccn1.O=S(=O)(O)c1ccccc1", "note": "[Compound I Form VI, 4-(pyrimidin-2-ylmethyl)-7-(4-(trifluoromethoxy)phenyl)-3,4-dihydrobenzo[f][1,4]oxazepin-5(2H)-one benzene sulfonic acid]", "values": [{"measurement": "Hygroscopicity by DVS (in words)", "setting": "[2]", "value": "non-hygroscopic"}, {"measurement": "Moisture uptake at 90% RH (DVS)", "setting": "[2]", "value": "about 0.1%"}, {"measurement": "Moisture uptake at 90% RH (DVS)", "setting": "[2]; listed as Form VI", "value": 0.11, "unit": "wt % at"}, {"measurement": "Hygroscopicity by DVS (in words)", "setting": "[2]; listed as Form VI", "value": "Non-"}]}]}
